According to patent publication US8349889B2, “Skin-care preparations containing mupirocin and betamethasone dipropionate” (Laboratorios Dermatologicos Darier, S.A. DE C.V., priority 2005, dated 2013):
Several values for one entry are separate records, joined by “and”; a condition that tells them apart may be missing. Equal values may be shown once.

How the values were obtained:
[1] = Active evaluation (USP23 NF/21) of white petrolatum ointment base formula, three samples; type: physicochemical; conditions: Samples 1-3 from different parts of the vessel, specification 90.0 to 110.0%
Experimental: As for the ointment base determination, an ointment base having the following components was tested: white petrolatum (carrier), NF 85 mineral oil (texture and appearance modifier), PEG 40 hydrogenated castor oil (solvent), glycerin (moistener), butyl hydroxy toluene (antioxidant), methyl paraben and propyl paraben (preservatives), mupirocin and betamethasone dipropionate (active ingredients). The manufacture process was the following: In an appropriate size vessel the white petrolatum, mineral oil and glycerin were placed, this mixture was heated up to a temperature of 75° C. and then the butyl hydroxy toluene with the parabens was dissolved; separately in other suitable size vessel the PEG 40 hydrogenated castor oil was placed, heated up to a 60° C. temperature and mupirocin and betamethasone dipropionate were solved therein; when both mixtures were at 60° C. they were mixed and the final product was obtained after lowering the temperature with constant mixing until reaching ambient temperature.
(§1) Once the product was obtained three samples were analyzed, collected from different parts of the vessel containing the product, by Active Evaluation techniques reported for each of them in the individual monographs included in USP23 NF/21.

[2] = Incompatibility tests, active evaluation immediately after preparation; type: physicochemical; set-up: unit not given here; conditions: for Active evaluation, Test 1: actives + PEG 40 hydrogenated castor oil, analysed immediately after preparation; for Active evaluation, Test 2: as Test 1 + butyl hydroxy toluene; for Active evaluation, Test 3: as Test 2 + propyl paraben; for Active evaluation, Test 4: as Test 3 + methyl paraben; for Active evaluation, Test 5: as Test 4 + glycerin; for Active evaluation, Test 6: as Test 5 + mineral oil; for Active evaluation, Test 7: as Test 6 + white petrolatum
Experimental: In order to test the possible incompatibility of mupirocin with one of the excipients the following tests reported in Table No. 4 were performed and the results are the following: [table]

[3] = Active evaluation (USP23 NF/21) of polyethylene glycol based formula, three samples; type: physicochemical; conditions: formula with PEG 40 hydrogenated castor oil, polyethylene glycol 600, PEG 150 distearate, methyl paraben; Samples 1-3; specification 90.0 to 110.0%
Experimental: Taking the experience that mupirocin and betamethasone dipropionate are soluble at 60° C. in PEG 40 hydrogenated castor oil and in polyethylene glycol 600 (according to Table No. 2), a formulation having the following ingredients is proposed: mupirocin and betamethasone dipropionate (active ingredients), PEG 40 hydrogenated castor oil (cosolvent), polyethylene glycol 600 (balance excipient or carrier), PEG 150 distearate (thickener) and methyl paraben (preservative). The manufacturing process was the following: In an appropriate size vessel the polyethylene glycol 600 and PEG 40 hydrogenated castor oil were placed, this mixture was heated up to a temperature of 70° C. and then the methyl paraben, mupirocin and betamethasone dipropionate were dissolved; once all the above ingredients were dissolved, the temperature was lowered with constant mixing until reaching 60° C.; it was then added the PEG 150 distearate and continued mixing until the mixture was homogenous; the final product was obtained after lowering the temperature with constant mixing until reaching ambient temperature.
as §1

[4] = Simple incorporation of the active in white petrolatum at 60° C.; type: physicochemical; conditions: incorporated in white petrolatum at 60° C.; cream color gummy hard precipitate forms
Experimental: According to the results it can be concluded that mupirocin in the presence of white petrolatum undergoes a possible chemical degrading. It then followed a simple incorporation of the active in the white petrolatum at a temperature of 60° C. and it was seen that immediately a cream color precipitate forms having a gummy appearance and hard. […] Therefore, this ointment base with mupirocin is discarded.

Bactericide action tests = conditions: at the concentrations obtained in a 2% topical formulation

Row | SMILES | Evaluation Results [1] | Active evaluation, Test 1 [2] | Active evaluation, Test 2 [2] | Active evaluation, Test 3 [2] | Active evaluation, Test 4 [2] | Active evaluation, Test 5 [2] | Active evaluation, Test 6 [2] | Active evaluation, Test 7 [2] | Evaluation Results [3] | Compatibility with white petrolatum [4] | bactericide action (Bactericide action tests)
1 | CCC(=O)OCC(=O)[C@@]1(OC(=O)CC)[C@@H](C)C[C@H]2[C@@H]3CCC4=CC(=O)C=C[C@]4(C)[C@@]3(F)[C@@H](O)C[C@@]21C [Betamethasone dipropionate] | 100.6% and 100.2% | 100.2 | 100.3 | 100.2 | 99.8 | 100.2 | 100.4 | 99.3 | 99.8% and 100.3% and 100.1% | – | –
2 | C/C(=C\C(=O)OCCCCCCCCC(=O)O)C[C@@H]1OC[C@H](C[C@@H]2O[C@H]2[C@@H](C)[C@H](C)O)[C@@H](O)[C@H]1O [Mupirocin] | 70.5% and 71.2% and 70.7% | 98.8 | 99.3 | 98.7 | 98.9 | 99.0 | 98.8 | 69.8 | 98.7% and 99.1% and 99.4% | incompatible with white petrolatum | has bactericide action
